Results published in patent US11377442B2, “Small molecule agonists and antagonists of NR2F6 activity” (ZANDER THERAPEUTICS, INC., priority 2016, dated 2022).
Where two headings read alike, the source gives them in different places.

How the values were obtained:
Format in all cases: cell-based
[1] = target: T1, NR2F6 (Homo sapiens, UniProt P10588); test: NR2F6 agonist screening, Firefly signal cmpd/DMSO
T1 construct: expressed in transfected cells; also transient transfection
T1 sequence (P10588 1-404): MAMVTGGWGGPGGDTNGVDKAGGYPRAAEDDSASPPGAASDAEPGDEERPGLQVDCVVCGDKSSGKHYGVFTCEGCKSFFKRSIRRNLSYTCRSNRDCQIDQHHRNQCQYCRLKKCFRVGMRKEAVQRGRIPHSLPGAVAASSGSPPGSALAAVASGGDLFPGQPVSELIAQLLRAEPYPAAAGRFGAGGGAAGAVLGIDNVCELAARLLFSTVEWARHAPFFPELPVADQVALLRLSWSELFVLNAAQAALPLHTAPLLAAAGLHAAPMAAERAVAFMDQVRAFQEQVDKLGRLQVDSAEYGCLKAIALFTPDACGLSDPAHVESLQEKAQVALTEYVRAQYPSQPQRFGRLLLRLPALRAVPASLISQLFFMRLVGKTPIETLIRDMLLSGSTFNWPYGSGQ

[2] = system: Renilla; test: Renilla signal in NR2F6 agonist screening, cmpd/DMSO; settings: Renilla, F4
[3] = system: HEK293 pGL4; test: Firefly_pGL signal, cmpd/DMSO (pGL4 control cells); settings: Homo sapiens
[4] = target: T2, NR2F6 LBD (Homo sapiens, UniProt P10588); test: NR2F6 LBD transient transfection; settings: LBD
T2 construct: expressed in transfected cells
T2 sequence (P10588 165-393 limits assumed): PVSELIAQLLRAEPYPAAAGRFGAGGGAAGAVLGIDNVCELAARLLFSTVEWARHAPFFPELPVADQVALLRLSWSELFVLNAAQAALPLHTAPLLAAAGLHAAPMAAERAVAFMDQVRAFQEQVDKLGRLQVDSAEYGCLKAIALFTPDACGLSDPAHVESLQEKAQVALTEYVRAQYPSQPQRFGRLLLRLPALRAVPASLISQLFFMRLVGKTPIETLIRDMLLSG
In short: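 LBD-transfected cells treated at 40, 10, 2 and 0.5 μM (4 replicates); cytotoxicity measured in parallel, normalized to DMSO (0%) and zero signal (100%). Higher concentrations excluded where signal loss reflected toxicity.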

[5] = read-out: Renilla, F4, cmpd/DMSO (mean)
[6] = 1% FBS, read-out: Renilla, F4, 1% FBS, cmpd/DMSO (mean)
[7] = 10% FBS, read-out: Renilla, F4, 10% FBS, cmpd/DMSO (mean)
[8] = HEK293, 0.5 uM, pGL4, read-out: Firefly pGL4, cmpd/DMSO (mean)
[9] = HEK293, 2 uM, pGL4, read-out: Firefly pGL4, cmpd/DMSO (mean)
[10] = HEK293, 10 uM, pGL4, read-out: Firefly pGL4, cmpd/DMSO (mean)
[11] = HEK293, 40 uM, pGL4, read-out: Firefly pGL4, cmpd/DMSO (mean)
[12] = HEK293, pGL4, 1% FBS, 0.5 uM, read-out: Firefly, pGL4, 1% FBS, cmpd/DMSO (mean)
[13] = HEK293, pGL4, 1% FBS, 2 uM, read-out: Firefly, pGL4, 1% FBS, cmpd/DMSO (mean)
[14] = HEK293, pGL4, 1% FBS, 10 uM, read-out: Firefly, pGL4, 1% FBS, cmpd/DMSO (mean)
[15] = HEK293, pGL4, 1% FBS, 40 uM, read-out: Firefly, pGL4, 1% FBS, cmpd/DMSO (mean)
[16] = HEK293, pGL4, 10% FBS, 0.5 uM, read-out: Firefly, pGL4, 10% FBS, cmpd/DMSO (mean)
[17] = HEK293, pGL4, 10% FBS, 2 uM, read-out: Firefly, pGL4, 10% FBS, cmpd/DMSO (mean)
[18] = HEK293, pGL4, 10% FBS, 10 uM, read-out: Firefly, pGL4, 10% FBS, cmpd/DMSO (mean)
[19] = HEK293, pGL4, 10% FBS, 40 uM, read-out: Firefly, pGL4, 10% FBS, cmpd/DMSO (mean)

For O=S1(=O)C[C@H](NC2CCCCCC2)[C@@H](S(=O)(=O)c2ccc(Cl)cc2)C1 [Compound D130], the “Firefly F4, cmpd/DMSO (mean)” value ([1]; 0.5 uM) was 1.4, the “Firefly F4, cmpd/DMSO (mean)” value ([1]; 2 uM) was 2.2 and the “Firefly F4, cmpd/DMSO (mean)” value ([1]; 10 uM) was 4.0. The “Firefly F4, cmpd/DMSO (mean)” value ([1]; 40 uM) was 1.6, the “F4, Firefly/Renilla for S/B(F4) > 3” value ([1]; 1% FBS, 10 uM) was 2.3 and the “Firefly, F4/pGL4 for S/B(F4) > 3” value ([1]; 1% FBS, 10 uM) was 1.8. For the same molecule, the “F4, Firefly/Renilla for S/B(F4) > 3” value ([1]; 10% FBS, 10 uM) was 2.7, the “Firefly, F4/pGL4 for S/B(F4) > 3” value ([1]; 10% FBS, 10 uM) was 1.4 and the “F4, Firefly/Renilla for S/B(F4) > 3” value ([1]; 10% FBS, 40 uM) was 2.4. The “Firefly, F4/pGL4 for S/B(F4) > 3” value ([1]; 10% FBS, 40 uM) was 2.0, the “Firefly, F4, 1% FBS, cmpd/DMSO (mean)” value ([1]; 1% FBS, 0.5 uM) was 0.7 and the “Firefly, F4, 1% FBS, cmpd/DMSO (mean)” value ([1]; 1% FBS, 2 uM) was 1.2. For the same molecule, the “Firefly, F4, 1% FBS, cmpd/DMSO (mean)” value ([1]; 1% FBS, 10 uM) was 3.6, the “Firefly, F4, 1% FBS, cmpd/DMSO (mean)” value ([1]; 1% FBS, 40 uM) was 0.6 and the “Firefly, F4, 10% FBS, cmpd/DMSO (mean)” value ([1]; 10% FBS, 0.5 uM) was 1.1. The “Firefly, F4, 10% FBS, cmpd/DMSO (mean)” value ([1]; 10% FBS, 2 uM) was 1.2, the “Firefly, F4, 10% FBS, cmpd/DMSO (mean)” value ([1]; 10% FBS, 10 uM) was 3.4 and the “Firefly, F4, 10% FBS, cmpd/DMSO (mean)” value ([1]; 10% FBS, 40 uM) was 5.0. The fold induction at 0.5 µM [2, 5] was 1.1, the fold induction at 2 µM [2, 5] was 1.2 and the fold induction at 10 µM [2, 5] was 1.5. It also gave a fold induction at 40 µM [2, 5] of 1.8, a fold induction at 0.5 µM [2, 6] of 1.1 and a fold induction at 2 µM [2, 6] of 1.2. For the same molecule, the fold induction at 10 µM [2, 6] was 1.6, the fold induction at 40 µM [2, 6] was 1.9 and the fold induction at 0.5 µM [2, 7] was 0.8. It also gave a fold induction at 2 µM [2, 7] of 0.9, a fold induction at 10 µM [2, 7] of 1.3 and a fold induction at 40 µM [2, 7] of 2.1. For the same molecule, the fold induction at 0.5 µM [3, 8] was 1.2, the fold induction at 2 µM [3, 9] was 1.8 and the fold induction at 10 µM [3, 10] was 3.4. The fold induction at 40 µM [3, 11] was 0.6, the fold induction at 0.5 µM [3, 12] was 1.2 and the fold induction at 2 µM [3, 13] was 2. For the same molecule, the fold induction at 10 µM [3, 14] was 2, the fold induction at 40 µM [3, 15] was 0.9 and the fold induction at 0.5 µM [3, 16] was 1. The fold induction at 2 µM [3, 17] was 1.6, the fold induction at 10 µM [3, 18] was 2.5 and the fold induction at 40 µM [3, 19] was 2.5. For the same molecule, the “Firefly LBD, cmpd/DMSO (mean)” value ([4]; 0.5 uM) was 1.1, the “Firefly LBD, cmpd/DMSO (mean)” value ([4]; 2 uM) was 1.7 and the “Firefly LBD, cmpd/DMSO (mean)” value ([4]; 10 uM) was 3.1. The “Firefly LBD, cmpd/DMSO (mean)” value ([4]; 40 uM) was 0.7.
For CCCCN(C)[C@H]1CS(=O)(=O)C[C@@H]1S(=O)(=O)c1ccc(Cl)cc1 [Compound D132], the “Firefly F4, cmpd/DMSO (mean)” value ([1]; 0.5 uM) was 1.5, the “Firefly F4, cmpd/DMSO (mean)” value ([1]; 2 uM) was 1.9 and the “Firefly F4, cmpd/DMSO (mean)” value ([1]; 10 uM) was 5.5. For the same molecule, the “Firefly F4, cmpd/DMSO (mean)” value ([1]; 40 uM) was 1.1, the “F4, Firefly/Renilla for S/B(F4) > 3” value ([1]; 1% FBS, 10 uM) was 3.0 and the “Firefly, F4/pGL4 for S/B(F4) > 3” value ([1]; 1% FBS, 10 uM) was 1.9. The “F4, Firefly/Renilla for S/B(F4) > 3” value ([1]; 10% FBS, 10 uM) was 2.0, the “Firefly, F4/pGL4 for S/B(F4) > 3” value ([1]; 10% FBS, 10 uM) was 1.2 and the “F4, Firefly/Renilla for S/B(F4) > 3” value ([1]; 10% FBS, 40 uM) was 1.8. For the same molecule, the “Firefly, F4/pGL4 for S/B(F4) > 3” value ([1]; 10% FBS, 40 uM) was 3.4, the “Firefly, F4, 1% FBS, cmpd/DMSO (mean)” value ([1]; 1% FBS, 0.5 uM) was 0.7 and the “Firefly, F4, 1% FBS, cmpd/DMSO (mean)” value ([1]; 1% FBS, 2 uM) was 1.3. The “Firefly, F4, 1% FBS, cmpd/DMSO (mean)” value ([1]; 1% FBS, 10 uM) was 5.0, the “Firefly, F4, 1% FBS, cmpd/DMSO (mean)” value ([1]; 1% FBS, 40 uM) was 0.5 and the “Firefly, F4, 10% FBS, cmpd/DMSO (mean)” value ([1]; 10% FBS, 0.5 uM) was 0.9. For the same molecule, the “Firefly, F4, 10% FBS, cmpd/DMSO (mean)” value ([1]; 10% FBS, 2 uM) was 1.4, the “Firefly, F4, 10% FBS, cmpd/DMSO (mean)” value ([1]; 10% FBS, 10 uM) was 3.3 and the “Firefly, F4, 10% FBS, cmpd/DMSO (mean)” value ([1]; 10% FBS, 40 uM) was 5.4. The “Activity, cmpd/DMSO” value ([1]; Table 31) was 6.6, the fold induction at 0.5 µM [2, 5] was 1 and the fold induction at 2 µM [2, 5] was 1.2. For the same molecule, the fold induction at 10 µM [2, 5] was 1.7, the fold induction at 40 µM [2, 5] was 1.3 and the fold induction at 0.5 µM [2, 6] was 1.1. The fold induction at 2 µM [2, 6] was 1.3, the fold induction at 10 µM [2, 6] was 1.7 and the fold induction at 40 µM [2, 6] was 1.7. The fold induction at 0.5 µM [2, 7] was 0.9, the fold induction at 2 µM [2, 7] was 1.1 and the fold induction at 10 µM [2, 7] was 1.6. The fold induction at 40 µM [2, 7] was 3, the fold induction at 0.5 µM [3, 8] was 1.6 and the fold induction at 2 µM [3, 9] was 1.6. The fold induction at 10 µM [3, 10] was 4.9, the fold induction at 40 µM [3, 11] was 0.5 and the fold induction at 0.5 µM [3, 12] was 1. For the same molecule, the fold induction at 2 µM [3, 13] was 1.6, the fold induction at 10 µM [3, 14] was 2.6 and the fold induction at 40 µM [3, 15] was 0.8. The fold induction at 0.5 µM [3, 16] was 0.9, the fold induction at 2 µM [3, 17] was 1.3 and the fold induction at 10 µM [3, 18] was 2.7. The fold induction at 40 µM [3, 19] was 1.6, the “Firefly LBD, cmpd/DMSO (mean)” value ([4]; 0.5 uM) was 1.1 and the “Firefly LBD, cmpd/DMSO (mean)” value ([4]; 2 uM) was 2.1. For the same molecule, the “Firefly LBD, cmpd/DMSO (mean)” value ([4]; 10 uM) was 4.3 and the “Firefly LBD, cmpd/DMSO (mean)” value ([4]; 40 uM) was 0.4.
